Source: patent US20240174662A1, “SMALL MOLECULE INHIBITORS OF SALT INDUCIBLE KINASES” (Janssen Biotech, Inc., priority 2021, published 2024)

Biological target: SIK2 (Homo sapiens (Human), UniProt Q9H0K1)
Experiment: SIK2 Enzymatic Assay Version 2 (High ATP)
Type: biochemical
Details: 3 mM ATP and 200 μM HDAC5tide final, ADP-Glo Max luminescence
Procedure, shortened: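 Run at room temperature; SIK2 enzyme at 6 nM (2× final) preincubated with compound 30 min before reaction. ADP formation detected by ADP-Glo Max (2 h reagent, 1 h detection) with luminescence read-out.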

Sequence of SIK2 (Q9H0K1 whole entry, species assumed): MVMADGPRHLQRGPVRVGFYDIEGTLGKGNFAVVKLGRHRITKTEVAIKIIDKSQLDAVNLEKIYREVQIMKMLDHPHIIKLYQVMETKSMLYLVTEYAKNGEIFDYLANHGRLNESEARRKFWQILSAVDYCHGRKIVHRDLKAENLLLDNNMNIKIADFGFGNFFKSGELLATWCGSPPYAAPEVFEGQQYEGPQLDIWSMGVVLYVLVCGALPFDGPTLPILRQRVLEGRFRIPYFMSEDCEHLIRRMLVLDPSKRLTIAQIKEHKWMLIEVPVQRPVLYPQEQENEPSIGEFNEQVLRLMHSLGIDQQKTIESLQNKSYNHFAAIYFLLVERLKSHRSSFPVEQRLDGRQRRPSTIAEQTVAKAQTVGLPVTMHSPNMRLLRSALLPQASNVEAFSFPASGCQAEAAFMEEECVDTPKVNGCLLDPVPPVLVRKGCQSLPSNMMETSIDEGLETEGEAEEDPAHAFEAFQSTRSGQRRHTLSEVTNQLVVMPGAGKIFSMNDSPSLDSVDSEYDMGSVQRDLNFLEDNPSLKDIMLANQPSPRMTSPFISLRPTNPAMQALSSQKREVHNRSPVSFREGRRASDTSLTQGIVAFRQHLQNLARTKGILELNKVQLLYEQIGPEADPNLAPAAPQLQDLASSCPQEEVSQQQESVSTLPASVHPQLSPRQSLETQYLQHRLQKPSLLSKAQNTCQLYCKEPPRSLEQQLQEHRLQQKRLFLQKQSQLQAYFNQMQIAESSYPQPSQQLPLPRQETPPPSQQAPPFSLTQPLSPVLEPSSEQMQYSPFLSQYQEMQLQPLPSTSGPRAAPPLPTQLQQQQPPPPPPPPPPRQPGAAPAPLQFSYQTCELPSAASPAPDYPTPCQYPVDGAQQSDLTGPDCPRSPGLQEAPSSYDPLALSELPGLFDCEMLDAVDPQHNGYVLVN

CO[C@@H]1CN(C)C[C@H]1COc1cnn(C)c1-c1ccn2nc(NC(=O)C3CC3)cc2c1 [Example 423, N-[5-[4-[[(3S,4S)-4-methoxy-1-methyl-pyrrolidin-3-yl]methoxy]-2-methyl-pyrazol-3-yl]pyrazolo[1,5-a]pyridin-2-yl]cyclopropanecarboxamide]
IC50: 151 nM

COC1CNC[C@@H]1Oc1noc(C)c1-c1ccn2nc(NC(=O)C3CC3)cc2c1 (mixture of isomers) [Example 200, (rac-cis)-N-[5-[3-(4-methoxypyrrolidin-3-yl)oxy-5-methyl-isoxazol-4-yl]pyrazolo[1,5-a]pyridin-2-yl]cyclopropanecarboxamide]
IC50: 29.4 nM

Cn1ncc(OC[C@H]2CCCN2CCF)c1-c1ccn2nc(NC(=O)C3CC3)cc2c1 [Example 350, N-[5-[4-[[(2R)-1-(2-fluoroethyl)pyrrolidin-2-yl]methoxy]-2-methyl-pyrazol-3-yl]pyrazolo[1,5-a]pyridin-2-yl]cyclopropanecarboxamide]
IC50: 66.2 nM

[2H]C([2H])([2H])C([2H])([2H])N1CCC[C@@H]1COc1cnn(C)c1-c1ccn2nc(Nc3cc(C)nc(C)n3)cc2c1 [Example 293, N-(2,6-dimethylpyrimidin-4-yl)-5-[2-methyl-4-[[(2R)-1-(1,1,2,2,2-pentadeuterioethyl)pyrrolidin-2-yl]methoxy]pyrazol-3-yl]pyrazolo[1,5-a]pyridin-2-amine]
IC50: < 0.847 nM

Cc1cc(Nc2cc3cc(-c4c(OC[C@H]5CCN5CCF)cnn4C)ccn3n2)ncn1 [Example 277, 5-[4-[[(2R)-1-(2-fluoroethyl)azetidin-2-yl]methoxy]-2-methyl-pyrazol-3-yl]-N-(6-methylpyrimidin-4-yl)pyrazolo[1,5-a]pyridin-2-amine]
IC50: 1.4 nM

CCN1CC[C@@H]1COc1cnn(C)c1-c1ccn2nc(Nc3cncc(C)n3)cc2c1 [Example 20, (R)-5-(4-((1-Ethylazetidin-2-yl)methoxy)-1-methyl-1H-pyrazol-5-yl)-N-(6-methylpyrazin-2-yl)pyrazolo[1,5-a]pyridin-2-amine]
IC50: < 0.847 nM

C[C@@H]1CN(C)[C@H]1COc1cnn(C)c1-c1ccn2nc(NC(=O)C3CC3)cc2c1 [Example 24, N-[5-[4-[[(2R,3R)-1,3-Dimethylazetidin-2-yl]methoxy]-2-methyl-pyrazol-3-yl]pyrazolo[1,5-a]pyridin-2-yl]cyclopropanecarboxamide]
IC50: 34.9 nM

Cc1cc(Nc2cc3cc(-c4c(OC[C@](C)(O)C5CC5)cnn4C)ccn3n2)nc(C)n1 (single isomer, unassigned) [Example 304, (*S)-2-cyclopropyl-1-[5-[2-[(2,6-dimethylpyrimidin-4-yl)amino]pyrazolo[1,5-a]pyridin-5-yl]-1-methyl-pyrazol-4-yl]oxy-propan-2-ol]
IC50: 45.7 nM

CN1CC[C@@H]1COc1cnn(C)c1-c1ccn2nc(NC(=O)[C@H]3C[C@@H]3c3ccccc3)cc2c1 (single isomer, unassigned) [Example 156, (1*S, 2*S)—N-[5-[2-methyl-4-[((R)-1-methylazetidin-2-yl)methoxy]pyrazol-3-yl]pyrazolo[1,5-a]pyridin-2-yl]-2-phenyl-cyclopropanecarboxamide]
IC50: 3.1 nM

Cc1cc(Nc2cc3cc(-c4c(OC[C@@H]5COC(C)(C)C5)cnn4C)ccn3n2)nc(C)n1 (single isomer, unassigned) [Example 307, (*R)—N-(2,6-dimethylpyrimidin-4-yl)-5-[4-[(5,5-dimethyltetrahydrofuran-3-yl)methoxy]-2-methyl-pyrazol-3-yl]pyrazolo[1,5-a]pyridin-2-amine]
IC50: 30.9 nM

Cc1onc(OC2CCNCC2)c1-c1ccn2nc(NC(=O)C3CC3)cc2c1 [Example 316, N-[5-[5-methyl-3-(4-piperidyloxy)isoxazol-4-yl]pyrazolo[1,5-a]pyridin-2-yl]cyclopropanecarboxamide]
IC50: 50.3 nM

Cc1cnc(Nc2cc3cc(-c4c(CO[C@@H]5CN(C)C[C@@H]5C)cnn4C)ccn3n2)cn1 (relative stereo) [Example 380, CIS—*S, *S-5-[4-[(1,4-dimethylpyrrolidin-3-yl)oxymethyl]-2-methyl-pyrazol-3-yl]-N-(5-methylpyrazin-2-yl)pyrazolo[1,5-a]pyridin-2-amine]
IC50: 3.1 nM

Cc1cc(Nc2cc3cc(-c4c(OC[C@@H]5CCO[C@@H]5C)cnn4C)ccn3n2)nc(C)n1 (relative stereo) [Example 295, (2*R, 3*S)—N-(2,6-dimethylpyrimidin-4-yl)-5-[2-methyl-4-[(2-methyltetrahydrofuran-3-yl)methoxy]pyrazol-3-yl]pyrazolo[1,5-a]pyridin-2-amine]
IC50: 24.5 nM

CN1CC[C@H](Oc2cnn(C)c2-c2ccn3nc(Nc4cc(C(F)(F)F)ncn4)cc3c2)C1 [Example 459, 5-[2-methyl-4-[(3S)-1-methylpyrrolidin-3-yl]oxy-pyrazol-3-yl]-N-[6-(trifluoromethyl)pyrimidin-4-yl]pyrazolo[1,5-a]pyridin-2-amine]
IC50: 145 nM

CN1CC(C)(OCc2cnn(C)c2-c2ccn3nc(NC(=O)C4CC4)cc3c2)C1 [Example 192, N-[5-[4-[(1,3-dimethylazetidin-3-yl)oxymethyl]-2-methyl-pyrazol-3-yl]pyrazolo[1,5-a]pyridin-2-yl]cyclopropanecarboxamide]
IC50: 19.6 nM

C[C@@H]1C[C@H](Oc2cnn(C)c2-c2ccn3nc(NC(=O)C4CC4)cc3c2)CN1 [Example 233, N-[5-[2-methyl-4-[(3S,5R)-5-methylpyrrolidin-3-yl]oxy-pyrazol-3-yl]pyrazolo[1,5-a]pyridin-2-yl]cyclopropanecarboxamide]
IC50: 30.2 nM

CO[C@H]1CNC[C@H]1Oc1noc(C)c1-c1ccn2nc(NC(=O)C3CC3)cc2c1 [Example 88, N-[5-[3-[(3R,4S)-4-methoxypyrrolidin-3-yl]oxy-5-methyl-isoxazol-4-yl]pyrazolo[1,5-a]pyridin-2-yl]cyclopropanecarboxamide]
IC50: 11.5 nM

Cn1ncc(CO[C@H]2CNCC2(F)F)c1-c1ccn2nc(NC(=O)C3CC3)cc2c1 (single isomer, unassigned) [Example 465, (*S)—N-[5-[4-[(4,4-difluoropyrrolidin-3-yl)oxymethyl]-2-methyl-pyrazol-3-yl]pyrazolo[1,5-a]pyridin-2-yl]cyclopropanecarboxamide]
IC50: 74.9 nM

Cn1ncc(OC[C@@H](N)C(C)(C)C)c1-c1ccn2nc(NC(=O)C3CC3)cc2c1 [Example 348, N-[5-[4-[(2S)-2-amino-3,3-dimethyl-butoxy]-2-methyl-pyrazol-3-yl]pyrazolo[1,5-a]pyridin-2-yl]cyclopropanecarboxamide]
IC50: 55.3 nM

Cc1cncc(Nc2cc3cc(-c4c(CO[C@@H]5CN(C)C[C@H]5C)cnn4C)ccn3n2)n1 (stereo in doubt) [Example 375, Trans-*R, *S-5-[4-[(1,4-dimethylpyrrolidin-3-yl)oxymethyl]-2-methyl-pyrazol-3-yl]-N-(6-methylpyrazin-2-yl)pyrazolo[1,5-a]pyridin-2-amine]
IC50: 3.1 nM

CCN1CC[C@@H]1COc1cnn(C)c1-c1ccn2nc(NC(=O)[C@H]3C[C@@H]3C)cc2c1 [Example 25, (1S,2S)—N-[5-[4-[[(2R)-1-ethylazetidin-2-yl]methoxy]-2-methyl-pyrazol-3-yl]pyrazolo[1,5-a]pyridin-2-yl]-2-methyl-cyclopropanecarboxamide]
IC50: 5.8 nM

Cc1nccc(Nc2cc3cc(-c4c(O[C@H]5CCN(C)C5)cnn4C)ccn3n2)n1 [Example 456, 5-[2-methyl-4-[(3S)-1-methylpyrrolidin-3-yl]oxy-pyrazol-3-yl]-N-(2-methylpyrimidin-4-yl)pyrazolo[1,5-a]pyridin-2-amine]
IC50: 102 nM

Cn1ncc(CO[C@@H]2CNC[C@@H]2F)c1-c1ccn2nc(NC(=O)C3CC3)cc2c1 [Example 188, N-[5-[4-[[(3R,4S)-4-fluoropyrrolidin-3-yl]oxymethyl]-2-methyl-pyrazol-3-yl]pyrazolo[1,5-a]pyridin-2-yl]cyclopropanecarboxamide]
IC50: 7.7 nM

CCN1CC[C@@H]1COc1cnn(C)c1-c1ccn2nc(Nc3cc(C)c(=O)n(C)n3)cc2c1 [Example 178, 6-[[5-[4-[[(2R)-1-ethylazetidin-2-yl]methoxy]-2-methyl-pyrazol-3-yl]pyrazolo[1,5-a]pyridin-2-yl]amino]-2,4-dimethyl-pyridazin-3-one]
IC50: < 0.847 nM

COC1(COc2noc(C)c2-c2ccn3nc(NC(=O)C4CC4)cc3c2)CCNCC1 [Example 206, N-[5-[3-[(4-methoxy-4-piperidyl)methoxy]-5-methyl-isoxazol-4-yl]pyrazolo[1,5-a]pyridin-2-yl]cyclopropanecarboxamide]
IC50: 35 nM

Cn1ncc(OCC2(N)CCC2)c1-c1ccn2nc(NC(=O)C3CC3)cc2c1 [Example 231, N-[5-[4-[(1-aminocyclobutyl)methoxy]-2-methyl-pyrazol-3-yl]pyrazolo[1,5-a]pyridin-2-yl]cyclopropanecarboxamide]
IC50: 46.9 nM

Cc1cc(Nc2cc3cc(-c4c(OC[C@H](O)C5CCC5)cnn4C)ccn3n2)nc(C)n1 (single isomer, unassigned) [Example 444, (*R)-1-cyclobutyl-2-[5-[2-[(2,6-dimethylpyrimidin-4-yl)amino]pyrazolo[1,5-a]pyridin-5-yl]-1-methyl-pyrazol-4-yl]oxy-ethanol]
IC50: 155 nM

Cc1ccc(Nc2cc3cc(-c4c(OC[C@H]5CCN5)cnn4C)ccn3n2)nn1 [Example 392, 5-[4-[[(2R)-azetidin-2-yl]methoxy]-2-methyl-pyrazol-3-yl]-N-(6-methylpyridazin-3-yl)pyrazolo[1,5-a]pyridin-2-amine]
IC50: 73 nM

CN1CC2(CCOCC2)C1COc1cnn(C)c1-c1ccn2nc(NC(=O)C3CC3)cc2c1 (racemic) [Example 13, (rac)-N-[5-[2-methyl-4-[(2-methyl-7-oxa-2-azaspiro[3.5]nonan-3-yl)methoxy]pyrazol-3-yl]pyrazolo[1,5-a]pyridin-2-yl]cyclopropanecarboxamide]
IC50: 71.5 nM

Cc1cc(Nc2cc3cc(-c4c(OC[C@H]5CCN5)cnn4C(F)F)ccn3n2)nc(C)n1 [Example 260, 5-[4-[[(2R)-azetidin-2-yl]methoxy]-2-(difluoromethyl)pyrazol-3-yl]-N-(2,6-dimethylpyrimidin-4-yl)pyrazolo[1,5-a]pyridin-2-amine]
IC50: 37.6 nM
